Laboratory results reported in US7439077B2, “Coumarin analog compounds for safer anticoagulant treatment” (New Century Pharmaceuticals, Inc., priority 2002, dated 2008).
pKd: −log10 of the molar value. Several values for one entry are separate records, joined by “and”; a condition that tells them apart may be missing. Identical values can stand only once. Like-named read-outs stand apart in the source and are kept apart here.

Experiments:
[1] = molecular target: T1, HSA Fragment (Homo sapiens, UniProt P02768, form not given); experiment: BIACORE binding to HSA Fragment; details: human, HSA fragment, Protein: HSA Fragment; read-out: KD2
T1 construct: HSA Fragment
Source text: (§1) In the following examples, Biacore and Animal Study data were obtained with regard to some of the compounds of the present invention, namely NCP 014, 023, 023a.

[2] = molecular target: human serum albumin (Homo sapiens, UniProt P02768); experiment: Crystallographic determination of albumin binding site; details: serum albumin binding region observed
[3] = molecular target: Rat Albumin (Rattus norvegicus, UniProt P02770); experiment: BIACORE binding to Rat Albumin; details: Protein: Rat Albumin; for Binding Sites: number of binding sites; for pKd: read-out: KD1
Source text: as §1

[4] = molecular target: HSA (Homo sapiens, UniProt P02768); experiment: BIACORE binding to HSA; details: Protein: HSA; for Binding Sites: number of binding sites
Source text: as §1

[5] = molecular target: T2, HSA Fragment (Homo sapiens, UniProt P02768); experiment: BIACORE binding to HSA Fragment; details: Protein: HSA Fragment; number of binding sites
T2 construct: HSA Fragment
Source text: as §1

human serum albumin, sequence (P02768 25-609): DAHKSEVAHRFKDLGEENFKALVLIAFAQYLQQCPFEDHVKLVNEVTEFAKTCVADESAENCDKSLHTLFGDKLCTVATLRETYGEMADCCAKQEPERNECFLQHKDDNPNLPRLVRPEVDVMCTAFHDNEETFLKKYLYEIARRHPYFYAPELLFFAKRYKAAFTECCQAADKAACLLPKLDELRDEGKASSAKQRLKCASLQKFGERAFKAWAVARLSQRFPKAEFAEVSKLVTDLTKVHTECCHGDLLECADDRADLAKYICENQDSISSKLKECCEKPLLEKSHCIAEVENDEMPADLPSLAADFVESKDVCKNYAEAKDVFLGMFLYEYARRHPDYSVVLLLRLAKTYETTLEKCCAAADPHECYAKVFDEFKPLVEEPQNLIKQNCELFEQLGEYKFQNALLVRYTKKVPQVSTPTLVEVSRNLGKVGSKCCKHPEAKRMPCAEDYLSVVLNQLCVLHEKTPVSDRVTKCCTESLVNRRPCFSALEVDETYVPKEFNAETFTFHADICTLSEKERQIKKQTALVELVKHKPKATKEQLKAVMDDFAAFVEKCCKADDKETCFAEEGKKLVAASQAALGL
HSA, sequence (P02768 25-609): as above
Rat Albumin, sequence (P02770 25-608): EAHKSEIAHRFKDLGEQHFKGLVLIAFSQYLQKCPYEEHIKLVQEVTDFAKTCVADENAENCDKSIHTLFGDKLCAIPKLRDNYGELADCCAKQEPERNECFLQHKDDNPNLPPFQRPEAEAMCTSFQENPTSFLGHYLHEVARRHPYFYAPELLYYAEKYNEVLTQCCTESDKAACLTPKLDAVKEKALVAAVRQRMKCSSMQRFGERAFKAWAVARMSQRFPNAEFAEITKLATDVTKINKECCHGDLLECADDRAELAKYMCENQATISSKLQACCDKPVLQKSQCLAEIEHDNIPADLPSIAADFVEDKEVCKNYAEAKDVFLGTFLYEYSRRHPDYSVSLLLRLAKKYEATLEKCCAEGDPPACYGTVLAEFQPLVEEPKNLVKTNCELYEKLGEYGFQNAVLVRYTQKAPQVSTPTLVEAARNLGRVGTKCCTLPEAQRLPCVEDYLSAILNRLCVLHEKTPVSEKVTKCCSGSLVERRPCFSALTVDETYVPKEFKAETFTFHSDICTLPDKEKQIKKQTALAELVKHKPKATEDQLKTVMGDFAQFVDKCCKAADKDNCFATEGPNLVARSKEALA
T1 sequence (P02768 whole entry, the tested form may be a part): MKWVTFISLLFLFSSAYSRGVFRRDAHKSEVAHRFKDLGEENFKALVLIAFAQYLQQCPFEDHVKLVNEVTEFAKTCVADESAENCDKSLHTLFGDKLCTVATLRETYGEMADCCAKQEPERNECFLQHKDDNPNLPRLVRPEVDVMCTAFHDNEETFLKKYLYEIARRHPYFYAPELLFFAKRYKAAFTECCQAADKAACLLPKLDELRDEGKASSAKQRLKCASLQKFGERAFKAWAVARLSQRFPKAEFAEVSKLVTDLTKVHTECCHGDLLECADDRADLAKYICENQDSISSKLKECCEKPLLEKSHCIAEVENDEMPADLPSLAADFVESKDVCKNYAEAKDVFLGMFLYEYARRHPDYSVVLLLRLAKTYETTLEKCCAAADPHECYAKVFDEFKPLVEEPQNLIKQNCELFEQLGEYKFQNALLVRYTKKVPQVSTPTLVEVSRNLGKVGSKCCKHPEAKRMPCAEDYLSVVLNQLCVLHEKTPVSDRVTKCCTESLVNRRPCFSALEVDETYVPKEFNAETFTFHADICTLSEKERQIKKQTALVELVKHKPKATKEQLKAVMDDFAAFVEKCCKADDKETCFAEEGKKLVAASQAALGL
T2 sequence (P02768 whole entry, the tested form may be a part): as above

| Compound | pKd [1] | albumin binding site (location) [2] | Binding Sites [3] | pKd [3] | Binding Sites [4] | pKd ([4]; read-out: KD2) | Binding Sites [5] | pKd ([4]; read-out: KD1) | pKd ([4]; human, HSA (human serum albumin), read-out: KD2) |
| --- | --- | --- | --- | --- | --- | --- | --- | --- | --- |
| CC(=O)CC(Cc1ccc(Cl)cc1)c1c(O)c2ccccc2oc1=O (stereo not shown) [NCP 023a] | 4.30 | bind at the IB site of serum albumin unique from the IB endogenous long-chain fatty acid site | 2 | 4.93 | 1 and 2 | 4.40 |  |  |  |
| CCCCCCCCC(CC(C)=O)c1c(O)c2ccccc2oc1=O (stereo not shown) [NCP 014] | 4.01 | bind at the IB binding site, and in addition in the IIA binding site, but at a location different than the major site wherein sodium warfarin binds to albumin | 2 | 5.34 | 2 and 1 |  | 2 and 1 | 6.15 and 6.10 and 5.34 and 5.19 | 3.89 |
| CC(=O)CC(Cc1ccccc1)c1c(O)c2ccccc2oc1=O (stereo not shown) [NCP 023] | 3.66 | bind at the IB site of serum albumin unique from the IB endogenous long-chain fatty acid site |  | 4.07 | 2 and 1 | 3.95 and 3.80 |  |  |  |
